Laboratory results published in patent US11655225B2, “Antimycobacterial heterocyclic amides” (Crestone, Inc., priority 2018, dated 2023).
≈ marks a conversion by molar mass, not a printed value.

Columns and labels:
[1] = system: azithromycin-, doxycycline, and sulfamethoxazole-resistant M. abscessus; test: MIC against drug-resistant strains; format: cell-based; conditions: for MIC: Mycobacteroides abscessus, clinically relevant resistant strains, M. abscessus, range over compounds and strains; for activity against resistant strains: azithromycin-, doxycycline, and sulfamethoxazole-resistant M. abscessus
[2] = system: M. fortuitum; test: MIC determination, CLSI M24-A; format: cell-based; conditions: Mycolicibacterium fortuitum, range over compounds and species, read-out: MIC90 (concentration which inhibits 90% of strains)
[3] = system: M. abscessus; test: MIC determination, CLSI M24-A; format: cell-based; conditions: Mycobacteroides abscessus; for MIC90: range over compounds and species, read-out: MIC90 (concentration which inhibits 90% of strains); for MIC: CLSI M24-A
[4] = system: M. chelonae; test: MIC determination, CLSI M24-A; format: cell-based; conditions: Mycobacteroides chelonae, range over compounds and species, read-out: MIC90 (concentration which inhibits 90% of strains)
[5] = system: proton motive force; test: Membrane potential and electrochemical pH gradient monitoring; format: cell-based; conditions: Mtb intact cells and inverted membrane vesicles; data not shown
[6] = system: Mabs ATCC19977; format: cell-based; conditions: isolated at 4×MIC on 7H11-ADC agar
[7] = system: Mabs #21; test: 28-day mouse model of chronic NTM lung infection, efficacy; format: in vivo, M. abscessus; conditions: GM-CSF KO mice; 25 mg/kg once daily over 4 weeks, intratracheal microspray, 5% corn oil/saline emulsion
[8] = physchem; conditions: oil or lipid
[9] = mouse, in vivo
[10] = system: M. abscessus; test: Bactericidal activity; format: cell-based
[11] = system: M. tuberculosis; test: Bactericidal activity; format: cell-based

SMILES | MIC [1] [µg/mL] | activity against resistant strains [1] | MIC [3] [µg/mL] | other results
CC12CCCC(C(=O)Nc3nc4ccc(OC(F)(F)F)cc4s3)(CCC1)C2 [Example 5, 5-methyl-N-[6-(trifluoromethoxy)-1,3-benzothiazol-2-yl]bicyclo[3.3.1]nonane-1-carboxamide] | 0.03 to 4 (≈ 0.0753 to 10 µM) | active | – | MIC90 [2]: 0.12 to 1 µg/mL (≈ 0.301 to 2.51 µM); MIC90 [3]: 0.12 to 1 µg/mL (≈ 0.301 to 2.51 µM); MIC90 [4]: 0.12 to 1 µg/mL (≈ 0.301 to 2.51 µM)
CC1CC(C(=O)Nc2nc3c(F)cc(F)cc3s2)CC(C)(C)C1 (stereo not drawn) [Example 80, N-(4,6-difluoro-1,3-benzothiazol-2-yl)-3,3,5-trimethylcyclohexane-1-carboxamide] | 0.03 to 4 (≈ 0.0886 to 11.8 µM) | active | – | effect on proton motive force (membrane potential, electrochemical pH gradient) [5]: did not result from the collapse of the proton motive force; mutations found in spontaneous-resistant mutants [6]: non-synonymous mutations in their mmpL3 gene (L551S, I306S, A309P)
CC1CC(C(=O)Nc2nc3ccc(OC(F)(F)F)cc3s2)CC(C)(C)C1 (stereo not drawn) [Example 46, 3,3,5-trimethyl-N-[6-(trifluoromethoxy)-1,3-benzothiazol-2-yl]cyclohexane-1-carboxamide] | 0.03 to 4 (≈ 0.0776 to 10.4 µM) | active | – | –
CC12CC3CC(C)(C1)CC(C(=O)Nc1nc4ccc(OC(F)(F)F)cc4s1)(C3)C2 [Example 45, 3,5-dimethyl-N-[6-(trifluoromethoxy)-1,3-benzothiazol-2-yl]adamantane-1-carboxamide] | 0.03 to 4 (≈ 0.0707 to 9.42 µM) | active | – | lung bacterial load (CFU) versus vehicle control [7]: statistically significant CFU reduction; solubility [8]: ≤ 250 mg/mL; tolerability [9]: very well tolerated; MIC90 [2]: 0.12 to 1 µg/mL (≈ 0.283 to 2.36 µM); MIC90 [3]: 0.12 to 1 µg/mL (≈ 0.283 to 2.36 µM); MIC90 [4]: 0.12 to 1 µg/mL (≈ 0.283 to 2.36 µM)
CC1CC(C(=O)Nc2nc3ccc(C(F)(F)F)cc3s2)CC(C)(C)C1 (stereo not drawn) [Example 79, 3,3,5-trimethyl-N-[6-(trifluoromethyl)-1,3-benzothiazol-2-yl]cyclohexane-1-carboxamide] | – | – | – | mutations found in spontaneous-resistant mutants [6]: non-synonymous mutations in their mmpL3 gene (L551S, I306S, A309P)
CC12CCCC(C(=O)Nc3nc4cc(Cl)cc(Cl)c4s3)(CCC1)C2 [Example 2, N-(5,7-dichloro-1,3-benzothiazol-2-yl)-5-methylbicyclo[3.3.1]nonane-1-carboxamide] | 0.03 to 4 (≈ 0.0783 to 10.4 µM) | active | – | bactericidal effect [10]: bactericidal; bactericidal effect [11]: bactericidal; MIC90 [2]: 0.12 to 1 µg/mL (≈ 0.313 to 2.61 µM); MIC90 [3]: 0.12 to 1 µg/mL (≈ 0.313 to 2.61 µM); MIC90 [4]: 0.12 to 1 µg/mL (≈ 0.313 to 2.61 µM)
CC12CC3CC(C)(C1)CC(C(=O)Nc1nc4ccc(C(F)(F)F)cc4o1)(C3)C2 [Example 150, 3,5-dimethyl-N-[6-(trifluoromethyl)-1,3-benzoxazol-2-yl]adamantane-1-carboxamide] | – | – | 2 to 32 (≈ 5.1 to 81.5 µM) | –
CC1(C(=O)Nc2cc3ccccc3s2)CCCCC1 [Example 105, N-(1-benzothiophen-2-yl)-1-methylcyclohexane-1-carboxamide] | – | – | 2 to 32 (≈ 7.32 to 117 µM) | –
CC1CCCC(C(=O)Nc2nc3ccc(C(F)(F)F)cc3s2)C1 (stereo not drawn) [Example 127, 3-methyl-N-[6-(trifluoromethyl)-1,3-benzothiazol-2-yl]cyclohexane-1-carboxamide] | – | – | 2 to 32 (≈ 5.84 to 93.5 µM) | –
CC1CC(C(=O)Nc2nc3ccc(SC(F)(F)F)cc3s2)CC(C)(C)C1 (stereo not drawn) [Example 177, 3,3,5-trimethyl-N-{6-[(trifluoromethyl)sulfanyl]-1,3-benzothiazol-2-yl}cyclohexane-1-carboxamide] | – | – | 2 to 32 (≈ 4.97 to 79.5 µM) | –
CC1(C(=O)Nc2nc3c(F)c(F)c(F)cc3s2)CCCCC1 [Example 154, 1-methyl-N-(4,5,6-trifluoro-1,3-benzothiazol-2-yl)cyclohexane-1-carboxamide] | – | – | 2 to 32 (≈ 6.09 to 97.5 µM) | –
CC1(C(=O)Nc2nc3ccc(OC(F)F)cc3s2)CCCCC1 [Example 172, N-[6-(difluoromethoxy)-1,3-benzothiazol-2-yl]-1-methylcyclohexane-1-carboxamide] | – | – | 2 to 32 (≈ 5.88 to 94 µM) | –
C[C@]1(C(=O)Nc2nc3ccc(OC(F)(F)F)cc3s2)C[C@@H]2C=C[C@H]1C2 [Example 129, (1R,2S,4R)-2-methyl-N-[6-(trifluoromethoxy)-1,3-benzothiazol-2-yl]bicyclo[2.2.1]hept-5-ene-2-carboxamide] | – | – | 2 to 32 (≈ 5.43 to 86.9 µM) | –
CC12CCCC(C(=O)Nc3nc4cc(Cl)cc(Cl)c4o3)(CCC1)C2 [Example 184, N-(5,7-dichloro-1,3-benzoxazol-2-yl)-5-methylbicyclo[3.3.1]nonane-1-carboxamide] | – | – | 2 to 32 (≈ 5.45 to 87.1 µM) | –
CC1CC(C(=O)Nc2nc3ccc(Cl)cc3o2)CC(C)(C)C1 (stereo not drawn) [Example 118, N-(6-chloro-1,3-benzoxazol-2-yl)-3,3,5-trimethylcyclohexane-1-carboxamide] | – | – | 2 to 32 (≈ 6.23 to 99.7 µM) | –
